Measurements as given in patent US20250129021A1, “SMALL MOLECULE PROTEIN SYNTHESIS MODULATORS” (Interdict Bio, Inc., priority 2023, published 2025).

Columns and labels:
Assay type in all cases: biochemical
CCND1 = assay: In vitro transcription-translation (IVTT) assay, CCND1 reporter; settings: IVTT, HeLa S3 lysate, 2 hrs at 30° C.
Summary of the method: (§1)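 Reporter: mCherry, P2A, then 3×FLAG-target peptide-sfGFP fusion, IRES-initiated; HeLa S3 lysate IVTT; cpd dilutions 30 μM−0.1 μM half-log in 100% DMSO (dilution-plate conc); DNA added last; 2 h, 30° C; PBS quench.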

MYC = assay: In vitro transcription-translation (IVTT) assay, MYC reporter; settings: IVTT assay, HeLa S3 lysate, MYC reporter, normalized sfGFP/mCherry ratio; half-log dilutions 30 μM-0.1 μM, 2 hrs at 30° C.
Summary of the method: as §1

CCNE1 = assay: In vitro transcription-translation (IVTT) assay, CCNE1 reporter; settings: HeLa S3 lysate, 2 hrs at 30° C.
Description: Each preparation takes 8 cell pellets (4 ml packed volume each, approximately 1.0×10^9 cells per pellet). Thaw cell pellets from −80° C. on ice for 90 mins. Lay pellets horizontally on top of the ice and rotate every 30 mins to ensure even thawing. Once thawed, add 4 mL of cold lysis buffer to each pellet, and using a serological pipet, gently pipet up and down to break up clumps. Incubate resuspended cells in ice for an additional 30 mins (plunged into ice). During 30 min incubation, rinse and RNase-zap (Ambion) glass dounces (use loose pestle “A”), gently dry and place on ice until needed. Prepare RNase-free Eppendorf tubes for spinning and for batch storage. Add batch labels to 1.5-1.7 mL RNase-free microcentrifuge tubes (labeling scheme below). Each batch will have an extra 1.5-1.7 mL RNase-free microcentrifuge tube for 40 μL of lysate, label the top of this tube (labeling scheme below). After 30 min incubation, transfer all 8 mL of cell pellet to dounce. Cell lysis is complete after douncing 100 times. Aliquot cell lysis into 1.5-1.7 mL temporary-microcentrifuge tubes. Place tubes in centrifuge with “fins” out, and spin at 1,200×g for 5 mins. After the first spin use a 1 mL pipet to resuspend each tube and repeat spin. This acts as an additional lysis step, is more vigorous and increases lysate yield. During second spin get liquid N2 and a fresh conical tube on ice. After spin is complete, transfer supernatant (lysate) from microcentrifuge tubes into the 50 mL conical tube and keep on ice. Repeat steps 10-14 for all other cell pellets until completed. Once all cell lysate has been transferred to the 50 mL conical tube pipet to mix so the solution is homogenous. Transfer 1 mL of lysate into batch-labeled microcentrifuge tubes and flash freeze in liquid nitrogen. Be sure to pipet up and down to mix throughout transfer step. Place all tubes in the […] for long-term storage.
In vitro transcription-translation assay setup: Each assay includes a master mix containing lysate and shared components, a 96-well plate containing compound titrations for testing, a 96-well DNA plate with reporter constructs to be tested, 96-well skirted PCR plates, and 96-well flat-bottom, black, fluorescent assay plates. Reaction materials setup: (A) Master mix—15 mL conical tube (3 mL of HeLa S3 Lysate described above; 0.6 mL of ThermoFisher Accessory Proteins (#88882); 1.2 ml of ThermoFisher Reaction Mix (#88882); 0.54 mL of nuclease-free Water); (B) 96-Well Master Mix+Compound Plate (Half-log dilutions (30 μM−0.1 μM) of 4 compounds of interest are prepared in 100% DMSO); 96-Well DNA Plate (Five DNA constructs are plated into single columns within the plate. Row 1 of the column contains nuclease free H2O, all other wells contain 110 ng/μL plasmid DNA). Reactions are started by mixing 155 μL of master mix and 3.5 μL of compound serial dilutions, then 9.1 μL of master mix+compound mixture is aliquoted across 5 96-well plates. Reactions begin with final addition of 2 μL of DNA for a 11.1 μL reaction volume in each well. The entire plate is sealed, and incubated for 2 hrs at 30° C. After 2 hrs, quench the assay using 45 μL of PBS, and transfer 50 μL to a flat-bottom black microplate Quantify the sfGFP and mCherry signals from each well on each plate, taking 3 reads of each plate, and perform data analysis below.
In vitro transcription-translation assay data analysis: Each plate is read three times in channels for both sfGFP and mCherry signals. The average signal across these 3 reads is then calculated for further analysis. Control wells containing no DNA reporter are subtracted from reporter wells in the same column to remove auto-fluorescence of the lysate. Then, the ratio of sfGFP/mCherry is calculated per well, and these ratios are averaged across the triplicate experiments on the same plate. Finally, the ratio of each titration concentration is normalized to the no drug control to create the normalized stalling metric. […]

CCNTB1 = assay: In vitro transcription-translation (IVTT) assay, CCNTB1 reporter; settings: HeLa S3 lysate, 2 hrs at 30° C.
Summary of the method: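 HeLa S3 lysate-based coupled transcription-translation reactions with reporter plasmids, compounds in half-log dilutions (30 μM−0.1 μM, in DMSO), 2 h at 30° C. sfGFP/mCherry ratio, corrected for no-DNA background, normalized to no-drug control and fitted for IC50.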

## COc1ccc(C[C@H]2NC[C@H](O)[C@H]2OC(=O)NC[C@H]2CCN(c3nccs3)C2)cc1 [V188170, (2R,3S,4S)-4-hydroxy-2-[(4-methoxyphenyl)methyl]pyrrolidin-3-yl N-{[(3R)-1-(1,3-thiazol-2-yl)pyrrolidin-3-yl]methyl}carbamate]
CCND1
  IC50: < 10 µM
MYC
  IC50: 10 to 20 µM
CCNE1
  IC50: < 10 µM
CCNTB1
  IC50: < 10 µM

## O=C(NCc1cc(F)cc(F)c1)O[C@@H]1[C@@H](O)CN[C@@H]1Cc1ccc(Cl)cc1 [V188272, (2R,3S,4S)-2-[(4-chlorophenyl)methyl]-4-hydroxypyrrolidin-3-yl N-[(3,5-difluorophenyl)methyl]carbamate]
CCND1
  IC50: 20 to 30 µM
MYC
  IC50: 10 to 20 µM
CCNE1
  IC50: < 10 µM
CCNTB1
  IC50: < 10 µM

## COc1ccc(C[C@H]2NC[C@H](O)[C@H]2OC(=O)NCC(F)(F)CO)cc1 [V188164, (2R,3S,4S)-4-hydroxy-2-[(4-methoxyphenyl)methyl]pyrrolidin-3-yl N-(2,2-difluoro-3-hydroxypropyl)carbamate]
CCND1
  IC50: > 30 µM
MYC
  IC50: > 30 µM
CCNE1
  IC50: 20 to 30 µM
CCNTB1
  IC50: 10 to 20 µM

## COc1ccc(C[C@H]2NC[C@H](O)[C@H]2OC(=O)NCC23CNC(C2)C3)cc1 [V188152, (2R,3S,4S)-4-hydroxy-2-[(4-methoxyphenyl)methyl]pyrrolidin-3-yl N-{2-azabicyclo[2.1.1]hexan-4-ylmethyl}carbamate]
CCND1
  IC50: > 30 µM
CCNE1
  IC50: 10 to 20 µM
CCNTB1
  IC50: < 10 µM

## COc1ccc(C[C@H]2NC[C@H](O)[C@H]2OC(=O)NC[C@H]2CCN(C)C2)cc1 [V188108, (2R,3S,4S)-4-hydroxy-2-[(4-methoxyphenyl)methyl]pyrrolidin-3-yl N-{[(3R)-1-methylpyrrolidin-3-yl]methyl}carbamate]
CCND1
  IC50: > 30 µM
MYC
  IC50: > 30 µM
CCNE1
  IC50: > 30 µM
CCNTB1
  IC50: 20 to 30 µM

## COc1ccc(C[C@H]2NC[C@H](O)[C@H]2OC(=O)NC[C@H]2CCNC2)cc1F [V188076, (2R,3S,4S)-2-[(3-fluoro-4-methoxyphenyl)methyl]-4-hydroxypyrrolidin-3-yl N-[(3S)-pyrrolidin-3-ylmethyl]carbamate]
CCND1
  IC50: 20 to 30 µM
MYC
  IC50: > 30 µM
CCNE1
  IC50: 10 to 20 µM
CCNTB1
  IC50: < 10 µM

## COc1ccc(C[C@H]2NC[C@H](O)[C@H]2OC(=O)NCCc2ccc(S(=O)(=O)F)cc2)cc1 [V188175, (2R,3S,4S)-4-hydroxy-2-[(4-methoxyphenyl)methyl]pyrrolidin-3-yl N-{2-[4-(fluorosulfonyl)phenyl]ethyl}carbamate]
CCND1
  IC50: > 30 µM
MYC
  IC50: 10 to 20 µM
CCNE1
  IC50: 10 to 20 µM
CCNTB1
  IC50: < 10 µM

## COc1ccc(C[C@H]2NC[C@H](O)[C@H]2OC(=O)NCc2ccc3[nH]cnc3c2)cc1 [V188150, (2R,3S,4S)-4-hydroxy-2-[(4-methoxyphenyl)methyl]pyrrolidin-3-yl N-(JH-1,3-benzodiazol-5-ylmethyl)carbamate]
CCND1
  IC50: < 10 µM
MYC
  IC50: < 10 µM
CCNE1
  IC50: < 10 µM
CCNTB1
  IC50: < 10 µM

## O=C(NCc1ccccc1)O[C@@H]1[C@@H](O)CN[C@@H]1Cc1ccc(Cl)cc1 [V188203, (2R,3S,4S)-2-[(4-chlorophenyl)methyl]-4-hydroxypyrrolidin-3-yl N-benzylcarbamate]
CCND1
  IC50: 10 to 20 µM
MYC
  IC50: 10 to 20 µM
CCNE1
  IC50: < 10 µM
CCNTB1
  IC50: < 10 µM

## COc1ccc(C[C@H]2NC[C@H](O)[C@H]2OC(=O)NCc2ccnc(N3CCCC3)c2)cc1 [V188226, (2R,3S,4S)-4-hydroxy-2-[(4-methoxyphenyl)methyl]pyrrolidin-3-yl N-{[2-(pyrrolidin-1-yl)pyridin-4-yl]methyl}carbamate]
CCND1
  IC50: < 10 µM
MYC
  IC50: < 10 µM
CCNE1
  IC50: < 10 µM
CCNTB1
  IC50: < 10 µM

## COc1ccc(C[C@H]2NC[C@H](O)[C@H]2OC(=O)NCc2ccc(=O)[nH]c2)cc1 [V188206, (2R,3S,4S)-4-hydroxy-2-[(4-methoxyphenyl)methyl]pyrrolidin-3-yl N-[(6-oxo-1H-pyridin-3-yl)methyl]carbamate]
CCND1
  IC50: < 10 µM
MYC
  IC50: < 10 µM
CCNE1
  IC50: < 10 µM
CCNTB1
  IC50: < 10 µM

## COc1ccc(C[C@H]2NC[C@H](O)[C@H]2OC(=O)NCC2CCS(=O)(=O)C2)cc1 (stereo partly drawn) [V188154, (2R,3S,4S)-4-hydroxy-2-[(4-methoxyphenyl)methyl]pyrrolidin-3-yl N-[(1,1-dioxo-1lambda6-thiolan-3-yl)methyl]carbamate]
CCND1
  IC50: < 10 µM
MYC
  IC50: < 10 µM
CCNE1
  IC50: < 10 µM
CCNTB1
  IC50: < 10 µM

## COc1ccc(C[C@H]2NC[C@H](O)[C@H]2OC(=O)NC[C@H]2C[C@@H](N)C2)cc1 [V188147, (2R,3S,4S)-4-hydroxy-2-[(4-methoxyphenyl)methyl]pyrrolidin-3-yl N-{[(1s,3s)-3-aminocyclobutyl]methyl}carbamate]
CCND1
  IC50: 10 to 20 µM
MYC
  IC50: < 10 µM
CCNE1
  IC50: < 10 µM
CCNTB1
  IC50: < 10 µM

## COc1ccc(C[C@H]2NC[C@H](O)[C@H]2OC(=O)NCCNc2cc[nH]n2)cc1 [V187944, (2R,3S,4S)-4-hydroxy-2-[(4-methoxyphenyl)methyl]pyrrolidin-3-yl N-[2-(1H-pyrazol-3-ylamino)ethyl]carbamate]
CCND1
  IC50: 20 to 30 µM
MYC
  IC50: 10 to 20 µM
CCNE1
  IC50: 10 to 20 µM
CCNTB1
  IC50: < 10 µM

## COc1ccc(C[C@H]2NC[C@H](O)[C@H]2OC(=O)NCCC23CCCN2CCC3)cc1 [V188135, (2R,3S,4S)-4-hydroxy-2-[(4-methoxyphenyl)methyl]pyrrolidin-3-yl N-[2-(hexahydropyrrolizin-7a-yl)ethyl]carbamate]
CCND1
  IC50: 20 to 30 µM
MYC
  IC50: 10 to 20 µM
CCNE1
  IC50: 20 to 30 µM
CCNTB1
  IC50: 10 to 20 µM

## NS(=O)(=O)c1ccc(CNC(=O)O[C@@H]2[C@@H](O)CN[C@@H]2Cc2ccc(Cl)cc2)cc1 [V188291, (2R,3S,4S)-2-[(4-chlorophenyl)methyl]-4-hydroxypyrrolidin-3-yl N-[(4-sulfamoylphenyl)methyl]carbamate]
CCND1
  IC50: < 10 µM
MYC
  IC50: 10 to 20 µM
CCNE1
  IC50: < 10 µM
CCNTB1
  IC50: < 10 µM

## COc1ccc(C[C@H]2NC[C@H](O)[C@H]2OC(=O)NCc2cc(N3CCCC3)nc(N3CCCC3)c2)cc1 [V188228, (2R,3S,4S)-4-hydroxy-2-[(4-methoxyphenyl)methyl]pyrrolidin-3-yl N-{[2,6-bis(pyrrolidin-1-yl)pyridin-4-yl]methyl}carbamate]
CCND1
  IC50: > 30 µM
MYC
  IC50: > 30 µM
CCNE1
  IC50: > 30 µM
CCNTB1
  IC50: > 30 µM

## COc1ccc(C[C@H]2NC[C@H](O)[C@H]2OC(=O)NCc2cc(N3CCC3)nc(N3CCC3)c2)cc1 [V188227, (2R,3S,4S)-4-hydroxy-2-[(4-methoxyphenyl)methyl]pyrrolidin-3-yl N-{[2,6-bis(azetidin-1-yl)pyridin-4-yl]methyl}carbamate]
CCND1
  IC50: 20 to 30 µM
MYC
  IC50: 20 to 30 µM
CCNE1
  IC50: 20 to 30 µM
CCNTB1
  IC50: < 10 µM

## CNC(=O)c1ccc(CNC(=O)O[C@@H]2[C@@H](O)CN[C@@H]2Cc2ccc(OC)cc2)cc1 [V188305, (2R,3S,4S)-4-hydroxy-2-[(4-methoxyphenyl)methyl]pyrrolidin-3-yl N-{[4-(methylcarbamoyl)phenyl]methyl}carbamate]
CCND1
  IC50: < 10 µM
MYC
  IC50: < 10 µM
CCNE1
  IC50: < 10 µM
CCNTB1
  IC50: < 10 µM
